Where a name gives a salt, the structure may show the parent alone.
The compounds below were run against T1, dN-SARM1 protein (Homo sapiens, UniProt Q6SZW1) (assay: In vitro biochemical assay for inhibiting SARM1 enzymatic activity (IC50), PC6 fluorescence method). Details: 50 μM NAD, 50 μM PC6, 50 μM NMN activator.
T1 construct: the N-terminal mitochondrial localization signal peptide of SARM1 was removed
T1 sequence (Q6SZW1 28-724): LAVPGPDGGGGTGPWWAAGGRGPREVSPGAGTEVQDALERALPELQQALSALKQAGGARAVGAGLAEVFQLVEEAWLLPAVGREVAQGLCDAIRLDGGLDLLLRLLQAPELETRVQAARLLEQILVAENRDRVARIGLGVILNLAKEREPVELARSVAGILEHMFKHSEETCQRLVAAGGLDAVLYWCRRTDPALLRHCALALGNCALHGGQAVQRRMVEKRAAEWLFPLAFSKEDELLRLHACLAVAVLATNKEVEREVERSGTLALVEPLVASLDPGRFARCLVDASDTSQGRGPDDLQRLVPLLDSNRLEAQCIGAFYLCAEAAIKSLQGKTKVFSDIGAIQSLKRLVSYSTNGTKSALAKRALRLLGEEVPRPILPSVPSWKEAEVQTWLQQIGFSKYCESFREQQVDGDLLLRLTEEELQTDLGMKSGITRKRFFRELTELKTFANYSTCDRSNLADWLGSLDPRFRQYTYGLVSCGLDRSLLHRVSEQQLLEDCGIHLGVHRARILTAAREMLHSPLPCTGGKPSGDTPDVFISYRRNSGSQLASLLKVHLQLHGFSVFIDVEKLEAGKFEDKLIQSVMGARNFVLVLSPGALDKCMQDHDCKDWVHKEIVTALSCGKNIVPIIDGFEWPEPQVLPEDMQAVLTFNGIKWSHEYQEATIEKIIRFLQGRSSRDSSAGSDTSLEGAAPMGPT
Description: 200 μM compound was first added to a solution of 0.05 μg/ml dN-SARM1 in 50 mM Tris-HCl (pH 7.5). Half of the mixture was added to an equal volume of a solution of 0.05 μg/ml dN-SARM1 in 50 mM Tris-HCl (pH 7.5) and mixed. The drug was diluted 6 times in this manner, with the final concentrations being 200, 100, 50, 25, 12.5, 6.25, 3.125 μM, or 200, 50, 12.5, 3.125, 0.78, 0.195, 0.049 μM, respectively. The protein without inhibitors added, being used as control group, was incubated at room temperature for 10 minutes.
50 μM NAD, 50 μM PC6 as substrate and 50 μM NMN as activator were added to the dN-SARM1 protein incubated with the inhibitor and reacted for 30 minutes at room temperature. The concentration of each component was the final concentration in the reaction system.
During the reaction, PC6 fluorescence spectrum dynamics were detected by a microplate reader, wherein the excitation wavelength and emission wavelength for detection were 390 nm and 520 nm, respectively. Finally, the reaction rate was used to express the activity of the protein, and the half inhibitory concentration was calculated. The higher the reaction rate, the stronger the protein activity, and the lower the inhibitory efficiency of the compound.
The dose curve of compounds inhibiting SARM1 enzymatic activity was determined using the above method.

IC50	SMILES
1000 to 10000 nM	CN(C(=O)OC(C)(C)C)c1ccc2ncc(-c3cncc4[nH]cc(I)c34)n2c1 [Compound 208, tert-butyl (3-(3-iodo-1H-pyrrolo[2,3-c]pyridin-4-yl)imidazo[1,2-a]pyridin-6-yl)(methyl) carbamate]
1000 to 10000 nM	CNc1ccc2ncc(-c3cncc4[nH]cc(I)c34)n2c1 [Compound 209]
1000 to 10000 nM	CNc1ccc2ncc(-c3cccc4c(I)n[nH]c34)n2c1 [Compound 210, 3-(3-iodo-1H-indazol-7-yl)-N-methylimidazol[1,2-a]pyridin-6-amine hydrochloride]
1000 to 10000 nM	CC(C)(C)OC(=O)N(CCCc1ccccc1)c1ccc2ncc(-c3cccc(NC(=O)C4CCOCC4)c3)n2c1 [Compound 217]
1000 to 10000 nM	O=C(COCCOCc1ccccc1)Nc1cccc(-c2cnc3ccc(NCCCc4ccccc4)cn23)c1 [Compound 218]
1000 to 10000 nM	O=C(Cc1ccc(Cl)cc1)Nc1ccn2c(-c3ccncc3)cnc2c1 [Compound 222]
< 1000 nM	CN(C)c1ccc2ncc(-c3cccc4c3CNC4=O)n2c1 [Compound 223]
1000 to 10000 nM	c1cc(-c2cnc3ccc(N4CCOCC4)cn23)cc(N2CCOCC2)c1 [Compound 226]
1000 to 10000 nM	COCCOCCNc1cccc(-c2cnc3ccc(N4CCOCC4)cn23)c1 [Compound 229]
1000 to 10000 nM	COCCNc1cccc(-c2cnc3ccc(N4CCOCC4)cn23)c1 [Compound 232]
1000 to 10000 nM	COc1ccc2ncc(-c3cccc4c3CNC4=O)n2c1 [Compound 235]
< 1000 nM	CNc1ccc2ncc(-c3cccc(CNC(=O)C4CCOCC4)c3)n2c1 [Compound 242]
1000 to 10000 nM	CNc1ccc2ncc(-c3cccc(NC(=O)COCc4ccccc4)c3)n2c1 [Compound 250]
< 1000 nM	CNc1ccc2ncc(-c3cccc4c3CNC4=O)n2c1 [Compound 257]
< 1000 nM	CNc1ccc2ncc(-c3cncc4[nH]ccc34)n2c1 [Compound 258]
< 1000 nM	CNc1ccc2ncc(-c3ccncc3F)n2c1 [Compound 261]
< 1000 nM	CN(C(=O)OC(C)(C)C)c1ccc2ncc(-c3cccc4cnccc34)n2c1 [Compound 263]
< 1000 nM	CNc1ccc2ncc(-c3cccc4cnccc34)n2c1 [Compound 264]
< 1000 nM	CN(C(=O)OC(C)(C)C)c1ccc2ncc(-c3ccc4c(c3)CNC4=O)n2c1 [Compound 265]
1000 to 10000 nM	CNc1ccc2ncc(-c3ccc4c(c3)CNC4=O)n2c1 [Compound 266]
< 1000 nM	CN(C(=O)OC(C)(C)C)c1ccc2ncc(-c3cccc4cnn(C)c34)n2c1 [Compound 267]
< 1000 nM	CN(C(=O)OC(C)(C)C)c1ccc2ncc(-c3cncc4ccccc34)n2c1 [Compound 268]
1000 to 10000 nM	CNc1ccc2ncc(-c3cncc4ccccc34)n2c1 [Compound 269]
< 1000 nM	CN(C(=O)OC(C)(C)C)c1ccc2ncc(-c3ccc4ccncc4c3)n2c1 [Compound 270]

IC50	SMILES
< 1000 nM	CNc1ccc2ncc(-c3ccc4ccncc4c3)n2c1 [Compound 271]
1000 to 10000 nM	CN(C(=O)OC(C)(C)C)c1ccc2ncc(-c3cncnc3)n2c1 [Compound 283]
1000 to 10000 nM	CNc1ccc2ncc(-c3ccc4cn[nH]c4c3)n2c1 [Compound 284]
1000 to 10000 nM	CN(C(=O)OC(C)(C)C)c1ccc2ncc(-c3cccc4c3ccn4C)n2c1 [Compound 285]
1000 to 10000 nM	CN1Cc2c(cccc2-c2cnc3ccc(N(C)C(=O)OC(C)(C)C)cn23)C1=O [Compound 286]
1000 to 10000 nM	CNc1ccc2ncc(-c3cccc4c3CN(CCOC)C4=O)n2c1 [Compound 290]
1000 to 10000 nM	CN(C)CCN1Cc2c(cccc2-c2cnc3ccc(N(C)C(=O)OC(C)(C)C)cn23)C1=O [Compound 291]
1000 to 10000 nM	CNc1ccc2ncc(-c3cccc4c3CN(CCN(C)C)C4=O)n2c1 [Compound 292]
< 1000 nM	CN(C(=O)OC(C)(C)C)c1ccc2ncc(-c3ccnc4c3ccn4C)n2c1 [Compound 293]
1000 to 10000 nM	CNc1ccc2ncc(-c3ccnc4c3ccn4C)n2c1 [Compound 294]
1000 to 10000 nM	CN(C(=O)OC(C)(C)C)c1ccc2ncc(-c3cc4ccn(C)c4cn3)n2c1 [Compound 295]
1000 to 10000 nM	CNc1ccc2ncc(-c3cccc4c3CC(=O)N4C)n2c1 [Compound 296]
1000 to 10000 nM	CN(C(=O)OC(C)(C)C)c1ccc2ncc(-c3ccc4cc[nH]c4n3)n2c1 [Compound 297]
1000 to 10000 nM	CNc1ccc2ncc(-c3cccc4c3CC(=O)N4)n2c1 [Compound 298]
1000 to 10000 nM	CN(C(=O)C(C)(C)C)c1ccc2ncc(-c3cccc(N)c3)n2c1 [Compound 302]
1000 to 10000 nM	CC(C)(C)C(=O)Nc1ccc2ncc(I)n2c1 [Compound 304]
< 1000 nM	CN(C(=O)C1CC1)c1ccc2ncc(I)n2c1 [Compound 305]
< 1000 nM	CN(C(=O)C1CC1)c1ccc2ncc(-c3cccc(N)c3)n2c1 [Compound 306]
1000 to 10000 nM	COC(=O)c1cccc(-c2cnc3ccc(N(C)C(C)=O)cn23)c1 [Compound 308]
1000 to 10000 nM	CC(=O)N(C)c1ccc2ncc(-c3cccc(C(=O)NC4CCOCC4)c3)n2c1 [Compound 309]
1000 to 10000 nM	COCCOCCNC(=O)c1cccc(-c2cnc3ccc(N(C)C(C)=O)cn23)c1 [Compound 310]
< 1000 nM	CN(C(=O)OC(C)(C)C)c1ccc2ncc(C3CCCc4ncccc43)n2c1 (stereo not shown) [Compound 311]
1000 to 10000 nM	CNc1ccc2ncc(C3CCCc4ncccc43)n2c1 (stereo not shown) [Compound 312]

These compounds were tested against T2, SARM1 protein in iSARM1 (HEK293) cells (Homo sapiens, UniProt Q6SZW1) (assay: Inhibitory activity in inducible SARM1 overexpressing cell line, intracellular cADPR level). Details: activator CZ-48 100 μM, cADPR content.
T2 construct: The full-length SARM1 was synthesized into the pUC57 plasmid by WZ Biosciences Inc., and PCR was performed using pUC57-SARM1 as a DNA template
T2 sequence (Q6SZW1 28-724): T1 sequence (Q6SZW1 28-724)
Assay type: cell-based
Description: In this example, the gene sequence of SARM1 was amplified using PCR, and constructed into pInducer20-neo plasmid. pInducer20-SARM1 virus was packaged in a liposome and infected HEK293 to obtain an inducible SARM1-overexpressing cell line, which was labeled as iSARM1 (HEK293). The specific preparation was as follows:
First, a 96-well culture plate was treated with 0.05 mg/ml polylysine for 5 minutes and washed once with PBS. 3×10^4 iSARM1 (HEK293) cells were plated into the 96-well plate and cultured overnight in a 37° C. and 5% incubator. The next day, the cells were added with an inhibitor with a final concentration of 50 μM, incubated in the incubator for 1.5 hours, added with activator CZ-48 with a final concentration of 100 μM, and incubated for 16 hours. Meanwhile, the cells without adding CZ-48 or without adding drug were set as control group. Finally, the intracellular cADPR level was detected to represent the activity of SARM1, and the inhibition rate of SARM1 in cells by 50 μM inhibitor was calculated.
The cADPR measurement was performed as follows. First, the cells were washed once with PBS, and added with 150 μl of pre-cooled 0.6M perchloric acid (PCA) to quickly lyse the cells and precipitate the protein. The PCA supernatant was transferred to a 1.5 ml centrifuge tube. The protein in the culture medium was dissolved again with 100 μl of 1M NaOH. The supernatant was added with 0.5 ml of organic reagent mixture (trioctylamine:chloroform=1:3) to extract PCA from water. After sufficient shaking, the mixture was centrifuged at 12,000 rpm for 10 minutes. The solution was divided into 3 layers: the upper aqueous phase, containing the small molecules of interest; the lower organic phase, in which PCA was dissolved; and a thin protein layer between the upper and lower layers. The upper layer was transferred to a new centrifuge tube, added with 1M Tris-Mg at a ratio of 1:100 (1M Tris (pH 8.0): 1M MgCl2=9:1), added with NADase at a ratio of 1:250, and treated at 37° C. overnight to remove NAD^+ from the mixed solution. After the treatment was completed, the mixed solution was filtered using Millipore's 10 K 96-well filter plate to remove NADase.
The cADPR content in the solution was determined through Cycling analysis method. The specific steps were as follows: 20 μl of the sample to be tested or the cADPR standard was taken and added to a 96-well opaque white plate. Preparation of reaction solution: 9.6 ml of PBS (pH 7.4), 200 μl of ethanol, 150 μl of 1 mg/ml AD, 10 μl of 10 mM FMN, 5 μl of 18 mg/ml Diaphorase, 10 μl of 10 mM Resazurin, and 100 μl of 1M Nam. Half of the reaction solution was divided and added with 0.2 μg/ml cyclase. The reaction solution without adding cyclase was used as control experiment. Each sample was divided into two groups, 3 replicates in each group. The reaction solutions containing or not containing cyclase were added to each group to perform the reaction. The reaction kinetic curve within 30 minutes was recorded (Ex:Em=544/599). The average slope of the reaction was calculated. Conversion was performed according to cADPR standard to obtain the accurate cADPR content. A curve of intracellular cADPR content vs corresponding inhibitor concentration was plotted. The half inhibitory concentration of the inhibitor was calculated.

EC50	SMILES
< 1000 nM	CN(C(=O)OC(C)(C)C)c1ccc2ncc(-c3cccc(OCCOC4CCOC4)c3)n2c1 (stereo not shown) [Compound 155]
< 1000 nM	O=C(Nc1cccc(-c2cnc3ccc(NC/C=C/c4ccccc4)cn23)c1)C1CCOCC1 [Compound 215]
